ChEMBL document CHEMBL1201862, “PubChem BioAssay data set” (2004)
Active and inactive are the calls of the source.

Tests used:
[1] = tested on: HEK293; test: NOD2 signaling inhibitors in MDP-stimulated cells, cell-based, uHTS, luminescence (AID 2001); type: functional; conditions: Homo sapiens
[2] = tested on: HEK293; test: cells; type: functional, cell-based; conditions: Homo sapiens
[3] = tested on: HEK293; test: NOD1 signaling inhibitors, primary screen, cell-based, luminescence, uHTS (AID 1578); type: functional; conditions: Homo sapiens
[4] = tested on: HEK293; test: cells; type: functional, cell-based; conditions: Homo sapiens; remark: listed apart in the source
[5] = biological target: Nucleotide-binding oligomerization domain-containing protein 2 (Homo sapiens, UniProt Q9HC29); test: NOD2 signaling inhibitors, cell-based, luminescence, uHTS, HEK293 (AID 1566); type: functional
Nucleotide-binding oligomerization domain-containing protein 2, sequence (Q9HC29 whole entry, the tested form may be a part): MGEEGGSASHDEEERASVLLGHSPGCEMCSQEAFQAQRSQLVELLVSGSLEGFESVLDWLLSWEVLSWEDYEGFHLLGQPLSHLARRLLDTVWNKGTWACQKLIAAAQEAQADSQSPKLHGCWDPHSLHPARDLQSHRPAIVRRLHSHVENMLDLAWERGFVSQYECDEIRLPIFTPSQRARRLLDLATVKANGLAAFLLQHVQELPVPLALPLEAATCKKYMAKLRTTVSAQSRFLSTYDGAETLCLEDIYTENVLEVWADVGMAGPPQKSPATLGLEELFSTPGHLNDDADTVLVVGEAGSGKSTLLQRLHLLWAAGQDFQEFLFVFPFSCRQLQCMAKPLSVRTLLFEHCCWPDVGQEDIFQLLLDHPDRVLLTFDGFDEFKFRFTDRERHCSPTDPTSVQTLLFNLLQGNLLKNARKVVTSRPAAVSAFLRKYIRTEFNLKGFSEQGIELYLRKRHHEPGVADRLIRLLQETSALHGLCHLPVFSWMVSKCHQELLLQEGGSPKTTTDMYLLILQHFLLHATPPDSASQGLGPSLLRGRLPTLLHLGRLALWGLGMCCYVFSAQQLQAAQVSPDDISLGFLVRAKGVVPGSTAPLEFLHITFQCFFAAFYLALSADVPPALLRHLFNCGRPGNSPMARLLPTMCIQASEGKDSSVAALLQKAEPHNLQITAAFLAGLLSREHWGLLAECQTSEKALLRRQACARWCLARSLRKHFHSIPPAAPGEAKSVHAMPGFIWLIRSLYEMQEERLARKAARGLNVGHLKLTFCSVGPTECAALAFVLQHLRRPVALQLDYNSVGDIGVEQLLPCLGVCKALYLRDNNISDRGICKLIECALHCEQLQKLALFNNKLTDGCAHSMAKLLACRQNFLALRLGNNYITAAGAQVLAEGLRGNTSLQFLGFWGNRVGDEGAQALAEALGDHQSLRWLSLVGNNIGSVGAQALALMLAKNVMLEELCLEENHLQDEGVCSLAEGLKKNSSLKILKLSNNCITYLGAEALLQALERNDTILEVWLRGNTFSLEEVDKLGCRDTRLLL

[6] = tested on: HEK293; test: cells; type: functional, cell-based; conditions: Homo sapiens; remark: listed apart in the source
[7] = biological target: T1, Short transient receptor potential channel 4 (Mus musculus, UniProt Q9QUQ5); test: mouse TRPC4 channel inhibitors, dose response, cell-based, HEK293 TRPC4/mu-opioid, Fluo-4 calcium (AID 434942); type: functional;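 further: potency of inhibitors blocking the TRPC4 calcium response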
T1 sequence (Q9QUQ5 whole entry): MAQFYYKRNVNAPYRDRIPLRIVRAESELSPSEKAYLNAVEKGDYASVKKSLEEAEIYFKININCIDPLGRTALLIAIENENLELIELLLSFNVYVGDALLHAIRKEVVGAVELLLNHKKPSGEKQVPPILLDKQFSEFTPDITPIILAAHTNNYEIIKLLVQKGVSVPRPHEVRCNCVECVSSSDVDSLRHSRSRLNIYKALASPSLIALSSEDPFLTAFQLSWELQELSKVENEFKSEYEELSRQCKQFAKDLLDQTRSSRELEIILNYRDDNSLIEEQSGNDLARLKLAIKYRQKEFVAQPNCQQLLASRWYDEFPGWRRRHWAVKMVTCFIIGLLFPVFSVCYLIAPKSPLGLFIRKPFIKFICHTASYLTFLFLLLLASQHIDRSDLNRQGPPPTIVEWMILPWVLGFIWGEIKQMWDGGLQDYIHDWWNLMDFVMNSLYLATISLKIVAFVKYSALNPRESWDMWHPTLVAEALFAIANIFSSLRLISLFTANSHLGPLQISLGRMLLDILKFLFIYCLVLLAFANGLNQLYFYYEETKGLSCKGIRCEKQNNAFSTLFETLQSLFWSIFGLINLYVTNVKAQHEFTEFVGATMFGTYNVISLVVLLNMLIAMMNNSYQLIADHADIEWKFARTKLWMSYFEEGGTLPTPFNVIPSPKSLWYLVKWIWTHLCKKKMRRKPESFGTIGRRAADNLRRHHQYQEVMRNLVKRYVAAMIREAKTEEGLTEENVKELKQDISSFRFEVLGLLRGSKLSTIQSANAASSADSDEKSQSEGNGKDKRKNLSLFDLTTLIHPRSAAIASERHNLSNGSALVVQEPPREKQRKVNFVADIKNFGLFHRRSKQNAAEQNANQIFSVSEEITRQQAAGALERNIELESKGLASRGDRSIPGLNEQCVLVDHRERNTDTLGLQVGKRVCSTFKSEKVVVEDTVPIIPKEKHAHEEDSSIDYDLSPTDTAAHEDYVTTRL

[8] = biological target: T2, Carboxy-terminal domain RNA polymerase II polypeptide A small phosphatase 1 (Homo sapiens, UniProt Q9GZU7); test: inhibitors of CTDSP1, concentration-response testing, biochemical assay, absorbance-based, actives from ultra-high-throughput screening (AID 540297); type: functional
T2 sequence (Q9GZU7 whole entry): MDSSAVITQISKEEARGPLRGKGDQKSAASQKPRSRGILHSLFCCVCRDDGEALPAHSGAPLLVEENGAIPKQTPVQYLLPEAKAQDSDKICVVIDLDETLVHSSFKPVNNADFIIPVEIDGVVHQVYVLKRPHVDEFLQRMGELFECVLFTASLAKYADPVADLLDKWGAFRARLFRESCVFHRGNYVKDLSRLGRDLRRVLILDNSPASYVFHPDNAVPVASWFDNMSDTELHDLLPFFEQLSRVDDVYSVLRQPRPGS

[9] = biological target: Eukaryotic translation initiation factor 4E (Mus musculus, UniProt P63073); test: eIF4E–eIF4G protein interaction inhibitors, dose response, biochemical, TR-FRET (AID 855); type: functional;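 further: potency for disrupting eIF4E binding to eIF4GI seen as loss of FRET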
Eukaryotic translation initiation factor 4E, sequence (P63073 whole entry): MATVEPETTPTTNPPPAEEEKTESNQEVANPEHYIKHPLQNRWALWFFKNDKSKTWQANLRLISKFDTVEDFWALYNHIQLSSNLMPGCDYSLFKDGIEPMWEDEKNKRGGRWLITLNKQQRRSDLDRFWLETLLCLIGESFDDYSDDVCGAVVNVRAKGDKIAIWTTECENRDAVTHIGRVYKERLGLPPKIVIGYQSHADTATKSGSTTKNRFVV

[10] = tested on: Vero; test: cells; type: functional; conditions: Chlorocebus sabaeus
[11] = biological target: Melanocortin receptor 4 (Homo sapiens, UniProt P32245); type: functional, cell-based;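 further: Cell-based assay with luminescence read-out, confirmatory dose-response testing for agonist activity of biased ligands at MC4R; human U2OS cells with tagged receptor and beta-arrestin; potency of agonists that increase receptor coupling to beta-arrestin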
Melanocortin receptor 4, sequence (P32245 whole entry): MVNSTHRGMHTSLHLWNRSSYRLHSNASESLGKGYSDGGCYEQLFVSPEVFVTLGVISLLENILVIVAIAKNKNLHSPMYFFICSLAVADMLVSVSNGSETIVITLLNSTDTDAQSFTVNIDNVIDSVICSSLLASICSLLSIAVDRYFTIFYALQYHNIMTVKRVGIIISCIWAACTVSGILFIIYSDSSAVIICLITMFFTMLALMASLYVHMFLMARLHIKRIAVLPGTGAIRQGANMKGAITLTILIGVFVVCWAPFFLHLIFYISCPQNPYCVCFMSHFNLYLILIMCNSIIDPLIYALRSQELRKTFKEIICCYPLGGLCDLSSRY

[12] = biological target: Cytochrome P450 2C19 (Homo sapiens, UniProt P33261); test: Cytochrome panel assay with activity outcomes. Panel member name: p450-cyp2c19 Compounds with AC50 equal or less than 10 uM are considered active; type: functional; conditions: read-out: AC50
[13] = biological target: T3, Voltage-gated N-type calcium channel alpha-1B subunit/Amyloid beta A4 precursor protein-binding family A member 1 (Homo sapiens, UniProt Q00975+Q02410); type: protein assay
T3 sequence (Q00975 whole entry): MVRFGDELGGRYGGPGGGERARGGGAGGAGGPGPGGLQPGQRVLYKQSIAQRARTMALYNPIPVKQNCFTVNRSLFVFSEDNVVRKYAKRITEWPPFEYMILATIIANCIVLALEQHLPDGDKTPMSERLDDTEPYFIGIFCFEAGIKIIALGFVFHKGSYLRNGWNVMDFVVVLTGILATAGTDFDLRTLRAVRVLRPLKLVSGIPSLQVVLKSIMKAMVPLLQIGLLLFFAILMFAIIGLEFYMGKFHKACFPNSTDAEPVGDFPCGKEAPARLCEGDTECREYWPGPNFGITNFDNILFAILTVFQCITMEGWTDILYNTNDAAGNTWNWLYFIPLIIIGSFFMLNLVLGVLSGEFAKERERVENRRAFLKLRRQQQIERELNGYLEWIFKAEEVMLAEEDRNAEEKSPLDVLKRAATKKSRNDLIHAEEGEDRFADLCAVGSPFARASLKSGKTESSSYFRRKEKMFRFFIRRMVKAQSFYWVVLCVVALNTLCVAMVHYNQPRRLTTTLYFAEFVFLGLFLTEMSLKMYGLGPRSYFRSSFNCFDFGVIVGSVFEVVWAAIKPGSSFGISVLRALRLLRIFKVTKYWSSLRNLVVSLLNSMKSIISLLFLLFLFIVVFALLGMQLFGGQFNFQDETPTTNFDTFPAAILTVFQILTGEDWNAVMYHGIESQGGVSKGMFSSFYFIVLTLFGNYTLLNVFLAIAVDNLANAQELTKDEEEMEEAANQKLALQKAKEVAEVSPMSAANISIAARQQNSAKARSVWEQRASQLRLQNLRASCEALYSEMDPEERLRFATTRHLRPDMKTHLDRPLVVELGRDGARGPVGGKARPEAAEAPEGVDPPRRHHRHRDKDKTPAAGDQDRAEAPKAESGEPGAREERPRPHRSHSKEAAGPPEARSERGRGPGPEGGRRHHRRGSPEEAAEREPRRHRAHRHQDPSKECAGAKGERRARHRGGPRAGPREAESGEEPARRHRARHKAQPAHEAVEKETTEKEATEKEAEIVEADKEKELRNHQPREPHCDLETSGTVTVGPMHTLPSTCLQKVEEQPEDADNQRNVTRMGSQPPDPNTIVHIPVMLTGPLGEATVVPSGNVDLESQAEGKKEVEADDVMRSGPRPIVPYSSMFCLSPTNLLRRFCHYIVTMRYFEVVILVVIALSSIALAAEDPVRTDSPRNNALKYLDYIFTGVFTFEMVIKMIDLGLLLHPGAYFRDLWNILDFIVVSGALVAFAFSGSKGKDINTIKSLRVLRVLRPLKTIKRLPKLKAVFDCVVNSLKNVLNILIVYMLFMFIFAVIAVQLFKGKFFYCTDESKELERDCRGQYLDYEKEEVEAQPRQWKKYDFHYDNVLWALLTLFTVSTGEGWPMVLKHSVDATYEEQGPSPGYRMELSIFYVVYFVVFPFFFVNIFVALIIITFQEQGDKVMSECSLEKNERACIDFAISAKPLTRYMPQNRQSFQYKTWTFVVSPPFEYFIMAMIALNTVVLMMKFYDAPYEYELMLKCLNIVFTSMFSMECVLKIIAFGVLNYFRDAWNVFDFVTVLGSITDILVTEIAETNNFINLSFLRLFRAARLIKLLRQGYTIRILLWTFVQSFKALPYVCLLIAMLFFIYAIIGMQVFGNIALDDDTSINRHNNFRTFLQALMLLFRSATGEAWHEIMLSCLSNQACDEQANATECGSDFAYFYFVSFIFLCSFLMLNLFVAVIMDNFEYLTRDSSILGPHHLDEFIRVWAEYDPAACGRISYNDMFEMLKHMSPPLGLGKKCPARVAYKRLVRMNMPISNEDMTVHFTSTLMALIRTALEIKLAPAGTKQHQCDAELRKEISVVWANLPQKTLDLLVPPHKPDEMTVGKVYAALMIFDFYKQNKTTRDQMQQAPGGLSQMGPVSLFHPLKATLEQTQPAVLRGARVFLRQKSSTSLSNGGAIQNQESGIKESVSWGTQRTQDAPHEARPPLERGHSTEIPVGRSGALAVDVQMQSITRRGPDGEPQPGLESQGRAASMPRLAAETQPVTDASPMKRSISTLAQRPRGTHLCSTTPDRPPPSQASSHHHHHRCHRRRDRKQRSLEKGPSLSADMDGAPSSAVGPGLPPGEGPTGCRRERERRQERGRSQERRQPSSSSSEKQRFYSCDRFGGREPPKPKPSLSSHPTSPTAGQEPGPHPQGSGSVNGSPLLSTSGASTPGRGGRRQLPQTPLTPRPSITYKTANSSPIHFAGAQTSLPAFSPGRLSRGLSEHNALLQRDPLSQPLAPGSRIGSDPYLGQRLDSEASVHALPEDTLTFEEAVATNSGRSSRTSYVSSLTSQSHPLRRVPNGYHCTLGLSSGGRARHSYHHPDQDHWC
T3 sequence (Q02410 whole entry): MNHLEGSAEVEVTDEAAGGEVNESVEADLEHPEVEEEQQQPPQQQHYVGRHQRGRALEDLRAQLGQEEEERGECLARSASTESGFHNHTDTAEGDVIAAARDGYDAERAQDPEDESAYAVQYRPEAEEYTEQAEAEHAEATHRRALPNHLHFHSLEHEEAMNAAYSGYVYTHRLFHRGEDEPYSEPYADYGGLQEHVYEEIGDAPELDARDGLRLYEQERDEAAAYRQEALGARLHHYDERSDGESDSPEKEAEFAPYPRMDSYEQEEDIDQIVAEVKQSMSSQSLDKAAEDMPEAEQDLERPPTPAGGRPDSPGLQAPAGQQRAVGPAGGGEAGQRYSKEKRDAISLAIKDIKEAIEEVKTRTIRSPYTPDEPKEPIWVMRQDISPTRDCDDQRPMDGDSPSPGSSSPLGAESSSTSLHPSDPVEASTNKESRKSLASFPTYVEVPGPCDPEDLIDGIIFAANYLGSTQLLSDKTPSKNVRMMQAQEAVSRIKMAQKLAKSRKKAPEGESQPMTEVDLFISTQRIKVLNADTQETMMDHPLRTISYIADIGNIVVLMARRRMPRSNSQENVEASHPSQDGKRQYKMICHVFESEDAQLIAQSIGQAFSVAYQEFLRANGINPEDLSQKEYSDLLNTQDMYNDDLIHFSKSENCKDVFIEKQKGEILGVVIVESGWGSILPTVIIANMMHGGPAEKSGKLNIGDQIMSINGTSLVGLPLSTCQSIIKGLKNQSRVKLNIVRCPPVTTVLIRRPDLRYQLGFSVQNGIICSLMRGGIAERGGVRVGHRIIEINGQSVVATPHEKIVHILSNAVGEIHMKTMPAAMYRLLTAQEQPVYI

[14] = biological target: T3, Voltage-gated N-type calcium channel alpha-1B subunit/Amyloid beta A4 precursor protein-binding family A member 1; type: protein assay; remark: listed apart in the source
[15] = HEp-2 cell cytotoxicity, dose response, cytotoxicity control for RSV inhibitor project, HTS (AID 2410); type: functional; conditions: human respiratory syncytial virus
[16] = growth suppression of PTEN-null colon cells, dose response, cell-based, HCT116 PTEN knockout (AID 1047); type: functional;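 further: HCT116 colon tumor cells with PTEN knocked out; cells exposed to compound for 60 hours before readout; potency for loss of cell viability measured by luminescence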
[17] = biological target: Voltage-dependent T-type calcium channel subunit alpha-1H (Homo sapiens, UniProt O95180); type: functional;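 further: channel activity triggered by adding a high calcium stimulation buffer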
[18] = tested on: INS1; test: beta cell apoptosis inhibitors, cytokine rescue, dose response, luminescence, retest (AID 449756); type: functional, cell-based; conditions: Rattus norvegicus;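 further: cell death triggered by IL-1 beta plus TNF-alpha plus IFN-gamma mixture; protective hits raise ATP signal compared with cytokine alone wells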
[19] = biological target: T4, Corticotropin-releasing factor receptor 2/Corticotropin-releasing factor-binding protein (Homo sapiens, UniProt P24387+Q13324); test: activators of CRF receptor 2 with binding protein – uHTS hits, confirmation (AID 602473); type: functional; conditions: read-out: EC50_Mean
T4 sequence (Q13324 whole entry): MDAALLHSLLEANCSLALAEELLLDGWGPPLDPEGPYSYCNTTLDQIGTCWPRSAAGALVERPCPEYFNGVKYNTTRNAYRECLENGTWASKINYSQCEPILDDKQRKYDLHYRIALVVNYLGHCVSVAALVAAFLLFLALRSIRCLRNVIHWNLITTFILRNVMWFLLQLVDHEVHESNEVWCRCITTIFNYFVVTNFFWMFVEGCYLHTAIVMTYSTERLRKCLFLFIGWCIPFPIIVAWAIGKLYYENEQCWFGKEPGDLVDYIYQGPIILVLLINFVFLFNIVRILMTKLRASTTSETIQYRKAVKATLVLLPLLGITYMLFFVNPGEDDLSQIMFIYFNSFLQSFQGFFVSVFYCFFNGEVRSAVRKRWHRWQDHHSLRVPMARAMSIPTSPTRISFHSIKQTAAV
T4 sequence (P24387 whole entry): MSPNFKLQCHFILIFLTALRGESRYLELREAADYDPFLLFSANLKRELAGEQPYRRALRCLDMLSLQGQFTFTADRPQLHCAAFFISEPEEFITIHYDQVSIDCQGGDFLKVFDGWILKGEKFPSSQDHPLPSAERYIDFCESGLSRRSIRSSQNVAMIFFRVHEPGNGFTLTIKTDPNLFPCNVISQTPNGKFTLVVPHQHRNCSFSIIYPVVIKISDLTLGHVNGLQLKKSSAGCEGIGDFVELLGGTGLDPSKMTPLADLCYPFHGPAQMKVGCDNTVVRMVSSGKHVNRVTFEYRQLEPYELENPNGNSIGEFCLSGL

[20] = biological target: T5, RNA-binding protein pos-1 (Caenorhabditis elegans, UniProt G5EF15); test: inhibitors of POS-1/mex-3 RNA binding, dose response, biochemical, fluorescence polarization (AID 1964);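 further: purified POS-1 fused to maltose binding protein made in E. coli; potency of compounds blocking POS-1 binding to fluorescent RNA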
T5 sequence (G5EF15 whole entry): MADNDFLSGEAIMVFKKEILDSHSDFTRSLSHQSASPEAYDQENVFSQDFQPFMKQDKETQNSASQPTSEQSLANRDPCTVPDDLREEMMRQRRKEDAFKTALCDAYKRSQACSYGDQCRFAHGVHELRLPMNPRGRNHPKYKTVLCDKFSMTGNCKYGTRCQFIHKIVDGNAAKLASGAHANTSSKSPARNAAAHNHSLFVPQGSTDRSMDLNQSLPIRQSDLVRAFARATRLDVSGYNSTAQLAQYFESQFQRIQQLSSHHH

[21] = biological target: T6, Zinc finger protein mex-5 (Caenorhabditis elegans, UniProt Q9XUB2); test: MEX-5/TCR-2 RNA interaction inhibitors, dose response, biochemical, C. elegans, fluorescence polarization (AID 1960)
T6 sequence (Q9XUB2 whole entry): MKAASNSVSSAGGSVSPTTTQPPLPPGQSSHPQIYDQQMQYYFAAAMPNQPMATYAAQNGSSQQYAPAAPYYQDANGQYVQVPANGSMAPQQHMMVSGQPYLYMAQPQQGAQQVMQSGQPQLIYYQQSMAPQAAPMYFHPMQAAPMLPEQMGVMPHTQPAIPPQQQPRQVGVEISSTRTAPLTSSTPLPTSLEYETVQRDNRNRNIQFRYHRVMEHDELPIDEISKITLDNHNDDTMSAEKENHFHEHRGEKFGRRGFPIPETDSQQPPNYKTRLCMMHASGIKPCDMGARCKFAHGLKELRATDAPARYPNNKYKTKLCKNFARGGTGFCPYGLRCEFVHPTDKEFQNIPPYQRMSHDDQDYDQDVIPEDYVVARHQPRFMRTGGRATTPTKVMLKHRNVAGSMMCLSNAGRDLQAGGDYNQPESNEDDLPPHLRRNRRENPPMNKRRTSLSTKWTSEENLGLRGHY

COc1ccccc1N1CCN(c2ncnc3sc(C)c(-c4ccccc4)c23)CC1
IC50 [1]: 6.98 µM (active) | IC50 [2]: 6.68 µM (active) | EC50 [3]: 5.48 µM (active) | IC50 [4]: 17.2 µM (active) | EC50 [5]: 11.5 µM (active) | IC50 [6]: > 20 µM (inactive)

OCC(Cc1ccccc1)NCc1ccccc1C(F)(F)F (centres undefined)
EC50 [7]: 8.41 µM (active)

O=C(COC(=O)c1cccc([N+](=O)[O-])c1)c1ccc2c(c1)OCO2
EC50 [7]: 0.0027 µM (active)

O=C(COC(=O)c1cc(-c2ccccc2Cl)nc2ccccc12)Nc1ncc(C(F)(F)F)cc1Cl
IC50 [8]: 39 µM (active)

O=C(O)c1cc(-c2ccccc2)n(-c2ccccc2C(=O)O)n1
IC50 [9]: > 64 µM (inactive)

Cc1ccc(C(=O)Cn2c(C(=O)/C=C/c3ccccc3)nc3ccccc32)cc1
CC50 [10]: 16.4 µM (active) | EC50 [11]: > 89.2 µM (inactive)

COc1ccc(NC2=NCC(=O)N2Cc2cccs2)cc1
AC50 [12]: 8.91 µM (inconclusive) | IC50 [9]: > 64 µM (inactive)

CCC(=O)N1CCc2cc(S(=O)(=O)NCCN3CCCCC3CC)ccc21 (centres undefined)
EC50 [7]: 2.66 µM (active)

CC(=O)Nc1ccc(NC(=O)c2cc(-c3ccc(C)c(C)c3O)[nH]n2)cc1
IC50 [13]: 23.2 µM (active) | IC50 [14]: > 50 µM (inactive)

CCOC(=O)/C=C/C(=O)Nc1ccc(S(=O)(=O)N(C)c2ccccc2)cc1
IC50 [1]: 4.98 µM (active) | IC50 [2]: 5.26 µM (active) | EC50 [3]: 4.41 µM (active) | IC50 [4]: > 20 µM (inactive) | EC50 [5]: > 20 µM (inactive) | IC50 [6]: 16.3 µM (active)

COc1ccccc1OCCOc1ccc(/C=C2\C(=N)N3N=C(S(C)(=O)=O)SC3=NC2=O)cc1
IC50 [8]: 3.6 µM (active) | CC50 [15]: 22.5 µM (active)

CC(C)NCC(O)COCCOc1ccc(C(C)(C)C)cc1 (centres undefined)
EC50 [7]: 1.06 µM (active)

COC(=O)c1ccccc1NC(=O)c1cc(-c2ccco2)on1
IC50 [13]: 13.7 µM (active) | IC50 [14]: > 50 µM (inactive)

Cc1ccc(Cn2nc(C)c(NC(=O)CSc3nc4c(c(C(F)(F)F)n3)CCc3ccccc3-4)c2C)cc1
EC50 [16]: 21 µM (active) | IC50 [9]: > 64 µM (inactive)

CNC(=O)c1sc(N2N=C3/C(=C/c4ccccc4)CCCC3C2c2ccccc2)nc1C (centres undefined)
EC50 [17]: 9.13 µM (active) | AC50 [18]: 6.72 µM (active) | EC50 [19]: 16.1 µM (active)

CCN(CC)S(=O)(=O)c1ccc(NC(=O)c2cc(C(=O)OC)cc([N+](=O)[O-])c2)cc1
IC50 [9]: > 64 µM (inactive)

CC(C(=O)N1CCCCC1)N1CCN(S(=O)(=O)c2ccc(Cl)cc2)CC1 (centres undefined)
IC50 [8]: 54.9 µM (active)

NC(c1csc(NC(=O)Nc2cccc(Cl)c2)n1)C1CCCCC1 (centres undefined)
EC50 [11]: > 89.2 µM (inactive)

Cc1ccc(/N=C/c2nc(-c3ccc(C)cc3)oc2O)cc1
IC50 [9]: 50 µM (inactive) | EC50 [20]: 32.6 µM (active) | EC50 [21]: 68.7 µM (active)
